# From patent US20210321627A1, “NON-PESTICIDAL ATTRACT AND KILL COMPOSITION FOR CONTROL OF INSECTS” (Oregon State University, priority 2018, published 2021)
# Tested on: D. suzukii
# Test: Laboratory choice assays (double-choice ventilated arenas)
# Assay type: in vivo, Drosophila suzukii
# Conditions: vs flies selecting deionized water and flies not making any choice; 24 h; P<0.001
# Procedure: Constant and uniform airflow was created within each of the containers using a vacuum at 1.5 L mid′ from the base and through the upper portion of each of the respective containers. Attraction to the matrix containing the ingredients of the exemplary insect control composition was verified in double-choice behavioral experiments. Arenas were prepared using 2-L transparent Griffin-style graduated low-form plastic beakers (Nalgene, Rochester, N.Y.). For each beaker, 9 ventilation holes (1 cm diameter) were cut along the circumference approximately 6 cm from the base. The holes were covered with fine white mesh in order to prevent D. suzukii individuals from escaping. The top of each beaker was drilled and connected to a 0.5 cm diameter plastic tube providing a vacuum in order to create a constant and uniform air flow (1.5 L min^−1) within the containers. Beakers were placed upside down on a flat work surface covered by white paper sheets. Two 25 mL plastic cups (Dart Container Corporation, Mason, Mich.) containing ˜10 mL of water and 5 g of arabinogalactan were placed at the base of each beaker. Both cups were covered with a wax film (Parafilm® M, Pechiney, Chicago, Ill.). 3 holes (˜0.3 cm diameter) were cut on the film coverings in order to allow the flies to enter the cups. […]
substance,measurement,value
arabinogalactan,number of flies selecting deli cups containing arabinogalactan,significantly higher
